Values after ≈ are worked out from the molar mass of the structure shown. Counter-ions that a name gives are not always drawn.
Tests used:
Assay type in all cases: cell-based
[1] = system: Proteus vulgaris A 84354 1; experiment: Antibacterial activity, MIC, procedure B (agar dilution); details: A843541
Method: (§1) The compounds of the invention are tested for their antibacterial activity. The test can be carried out in two ways:
(§2) B. The organisms used in the test comprise the following: Staphylococcus aureus (penicillin-sensitive and resistant), Pseudomonas aeruginosa, Escherichia coli, […], Bordetella bronchiseptica, Proteus vulgaris, P. mirabilis, Acinetobacter calcoaceticus.
(§3) Test organisms may be added or deleted in order to reflect current clinical patterns of antibiotic susceptibility or shifts in pathogenic potential.
(§4) Organisms are normally grown for 18 hours in Brain Heart Infusion at 35° C. Cultures are adjusted with saline to MacFarland No. 1.5 standard prior to use.
(§5) Stock concentrations (e.g. 2,5000 μg or units per ml) are prepared in a suitable vehicle. Two-fold dilutions are made. One ml quantities of each dilution are incorporated in 9 ml of the appropriate agar (e.g. Seed) in sterile Petri plates. The hardened surface is inoculated with test organisms by use of a Steers replicating device. The plates are incubated (e.g. 18 hours at 35° C.) and activity is determined.

[2] = system: Pseudomonas aeruginosa ATCC 27853; experiment: as above; details: ATCC27853
Method: as §1, §2, §3, §4, §5

[3] = system: Enterobacter cloacae ATCC 13047; experiment: as above; details: ATCC13047
Method: as §1, §2, §3, §4, §5

[4] = system: Escherichia coli ATCC 25922; experiment: as above; details: ATCC25922
Method: as §1, §2, §3, §4, §5

[5] = system: Streptococcus faecalis ATCC 29212; experiment: as above; details: Enterococcus faecalis, ATCC29212
Method: as §1, §2, §3, §4, §5

[6] = system: Serratia marcescens ATCC 13880; experiment: as above; details: ATCC13880
Method: as §1, §2, §3, §4, §5

[7] = system: Staphylococcus aureus ATCC 29213; experiment: as above; details: ATCC29213
Method: as §1, §2, §3, §4, §5

[8] = system: Klebsiella pneunomiae KL-1; experiment: as above; details: KL1
Method: as §1, §2, §3, §4, §5

[9] = system: Proteus vulgaris A 84354 1; experiment: Antibacterial activity, MIC, procedure A (broth dilution); details: A843541
Method: as §1
(§6) A. The organisms used in the test comprise the following: Staphylococcus aureus (penicillin-sensitive and resistant), Pseudomonas aeruginosa, Escherichia coli, […], Bordetella bronchiseptica, Proteus vulgaris, P. mirabilis, Acinetobacter calcoaceticus.
as §3
(§7) Stock solution of appropriate medium (e.g. Mueller-Hinton Broth) is sterilized. Starting at a predetermined concentration (e.g. 250 μg/ml), two-fold dilutions are made with the Dynatech Automatic Diluter in a Microtiter plate of 8 rows of 12 wells each in which 11 wells in each row contain 50 μl of medium (e.g. Mueller-Hinton Broth) and the 12th well contains in 100 μl an aliquot of the compound to be tested. The diluted plates are inoculated using the Dynatech Automatic Inoculator which delivers the final inoculum (e.g. 10^5 cfu/ml of a seven-hour culture which has been incubated at 35° C.).
(§8) Plates are sealed with tape and incubated (e.g. 18 hours at 35° C.).

[10] = system: Pseudomonas aeruginosa ATCC 27853; experiment: as above; details: ATCC27853
Method: as §1, §6, §3, §7, §8

[11] = system: Enterobacter cloacae ATCC 13047; experiment: as above; details: ATCC13047
Method: as §1, §6, §3, §7, §8

[12] = system: Escherichia coli ATCC 25922; experiment: as above; details: ATCC25922
Method: as §1, §6, §3, §7, §8

[13] = system: Streptococcus faecalis ATCC 29212; experiment: as above; details: Enterococcus faecalis, ATCC29212
Method: as §1, §6, §3, §7, §8

[14] = system: Serratia marcescens ATCC 13880; experiment: as above; details: ATCC13880
Method: as §1, §6, §3, §7, §8

[15] = system: Staphylococcus aureus ATCC 29213; experiment: as above; details: ATCC29213
Method: as §1, §6, §3, §7, §8

[16] = system: Klebsiella pneunomiae KL-1; experiment: as above; details: KL1
Method: as §1, §6, §3, §7, §8

| MIC [1] | MIC [2] | MIC [3] | MIC [4] | MIC [5] | MIC [6] | MIC [7] | MIC [8] | MIC [9] | MIC [10] | MIC [11] | MIC [12] | MIC [13] | MIC [14] | MIC [15] | MIC [16] | SMILES |
| --- | --- | --- | --- | --- | --- | --- | --- | --- | --- | --- | --- | --- | --- | --- | --- | --- |
| 0.25 µg/mL (≈ 0.4 µM) | 256 µg/mL (≈ 410 µM) | 64 µg/mL (≈ 102 µM) | 2 µg/mL (≈ 3.2 µM) | 256 µg/mL (≈ 410 µM) | 32 µg/mL (≈ 51.2 µM) | 64 µg/mL (≈ 102 µM) | 1 µg/mL (≈ 1.6 µM) |  |  |  |  |  |  |  |  | CO/N=C(\C(=O)N[C@@H]1C(=O)N2C(C(=O)OC(C)(C)C)=C(CN3C(=O)C(C#N)=CNS3(=O)=O)CS[C@H]12)c1csc(N)n1 [Example 1 B, (6R,7R)-7-[[(Z)-(2-Amino-4-thiazolyl)(methoxyimino)acetyl]amino]-3-[(4-cyano-3,6-dihydro-3-oxo-2H-1,2,6-thiadiazin-2-yl)methyl]-8-oxo-5-thia-1-azabicyclo[4.2.0]oct-2-ene-2-carboxylic acid 1,1-dimethylethyl ester S^3, S^3-dioxide] |
| 1 µg/mL | 256 µg/mL | 32 µg/mL | 1 µg/mL | 128 µg/mL | 8 µg/mL | 32 µg/mL | 0.125 µg/mL |  |  |  |  |  |  |  |  | CO/N=C(\C(=O)N[C@@H]1C(=O)N2C(C(=O)O)=C(CN3C(=O)C(C#N)=CNS3(=O)=O)CS[C@H]12)c1csc(N)n1 [Example 1 C, (6R,7R)-7-[[(Z)-(2-Amino-4-thiazolyl)(methoxyimino)acetyl]amino]-3-[(4-cyano-3,6-dihydro-3-oxo-2H-1,2,6-thiadiazin-2-yl)methyl]-8-oxo-5-thia-1-azabicyclo[4.2.0]oct-2-ene-2-carboxylic acid, S^3, S^3-dioxide, trifluoroacetate salt] |
|  |  |  |  |  |  |  |  | 1 µg/mL (≈ 1.54 µM) | 128 µg/mL (≈ 197 µM) | 64 µg/mL (≈ 98.5 µM) | 8 µg/mL (≈ 12.3 µM) | 128 µg/mL (≈ 197 µM) | 64 µg/mL (≈ 98.5 µM) | 64 µg/mL (≈ 98.5 µM) | 4 µg/mL (≈ 6.16 µM) | CO/N=C(\C(=O)N[C@@H]1C(=O)N2C(C(=O)OC(C)(C)C)=C(CN3C(=O)c4ccccc4NS3(=O)=O)CS[C@H]12)c1csc(N)n1 [Example 2 B, (6R,7R)-7-[[(Z)-(2-Amino-4-thiazolyl)(methoxyimino)acetyl]amino]-3-[(1,4-dihydro-4-oxo-3H-2,1,3-benzothiadiazin-3-yl)methyl]-8-oxo-5-thia-1-azabicyclo[4.2.0]oct-2-ene-2-carboxylic acid 1,1-dimethylethyl ester, S^3, S^3-dioxide] |
|  |  |  |  |  |  |  |  | 0.25 µg/mL | 128 µg/mL | 64 µg/mL | 4 µg/mL | 128 µg/mL | 16 µg/mL | 32 µg/mL | 2 µg/mL | CO/N=C(\C(=O)N[C@@H]1C(=O)N2C(C(=O)O)=C(CN3C(=O)c4ccccc4NS3(=O)=O)CS[C@H]12)c1csc(N)n1 [Example 2 C, (6R,7R)-7-[[(Z)-(2-Amino-4-thiazolyl)(methoxyimino)acetyl]amino]-3-[(1,4-dihydro-4-oxo-3H-2,1,3-benzothiadiazin-3-yl)methyl]-8-oxo-5-thia-1-azabicyclo[4.2.0]oct-2-ene-2-carboxylic acid S^3, S^3-dioxide, trifluoroacetate salt] |

— patent US4728733A, “C-3' thiadiazinyl cephalosporin analogs” (American Home Products Corporation, priority 1985, dated 1988)
